The target in experiment [1] is BCL2 WT (Homo sapiens (Human), UniProt P10415). The experiment can be described thus: TR-FRET competitive binding assay, BCL2 WT. Particulars: Ki determined from IC50, read-out: TR_FRET EKI_Bcl2 WT. The method, boiled down:
(§1)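 Competitive TR-FRET displacement of fluorescein-PUMA peptide (2 or 20 nM) from 0.5 nM terbium-labelled N-terminal Halo-fusion BCL2 (1-207, wild type or mutant) or BCLXL (2-196), expressed in E. coli. Buffer 50 mM Hepes pH 7.5, 150 mM NaCl, 5% DMSO; 2 h at 23°C. 520/495 nm ratio fitted over 11 points for IC50, converted to Ki.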

For experiment [2], the target named is BCL2 D103Y (Homo sapiens, UniProt P10415, D103Y). In words: TR-FRET competitive binding assay, BCL2 D103Y. The conditions noted are these: Ki determined from IC50, read-out: TR_FRET EKI_Bcl2 D103Y. A digest of the protocol: as §1
In experiment [3] the target is BCL2 G101V (Homo sapiens, UniProt P10415, G101V). The experiment can be described thus: TR-FRET competitive binding assay, BCL2 G101V. Particulars: BCL2 G101V; Ki determined from IC50; read-out: TR_FRET EKI_Bcl2 G101V. The method, boiled down:
as §1

Experiment [4] deals with BCL2 G101V. The experiment can be described thus: TR-FRET competitive binding assay, BCL2 G101V. Also on record: species or system human. Particulars: ratio Ki BCL2 G101V / Ki BCL2 WT. The method, boiled down: as §1
The target of experiment [5] is BCLXL WT (Homo sapiens (Human), UniProt Q07817). In words: TR-FRET competitive binding assay, BCLXL WT. The conditions noted are these: for Ki: BCLXL WT, Ki determined from IC50, read-out: TR_FRET EKI BclxL; for TR_FRET EKI BCLxL/WT selectivty ratio: ratio Ki BCLxL / Ki BCL2 WT. A digest of the protocol: as §1
The test system of experiment [6] is KMS-12-PE Bcl-2 WT. In words: In vitro cytotoxicity CellTiter-Glo 48 h, KMS-12-PE Bcl-2 WT. It counts as cell-based. Particulars: Homo sapiens, KMS-12-PE, C50 = concentration needed to reach 50% of the cellular viability. The method, boiled down: (§2)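 KMS-12-PE myeloma cells lentivirally transduced with Bcl-2 WT or G101V (TagRFP-sorted), exposed to compound 11-point dose-response for 48 h at 37 °C, 5% CO2. Viability read by CellTiter-Glo ATP luminescence; C50 is the concentration giving 50% cellular viability.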

Experiment [7] has as its system KMS-12-PE Bcl-2 G101V. In words: In vitro cytotoxicity CellTiter-Glo 48 h, KMS-12-PE Bcl-2 G101V. It counts as cell-based. Particulars: for Ratio (G101V/WT): C50 KMS-12-PE Bcl-2 G101V over C50 KMS-12-PE Bcl-2 WT; for IC50: Homo sapiens, KMS-12-PE, 48 h, CellTiter-Glo, C50 = concentration needed to reach 50% of the cellular viability. The method, boiled down:
as §2

BCLXL WT, sequence (Q07817 other isoform, or with tags, fused parts or gaps): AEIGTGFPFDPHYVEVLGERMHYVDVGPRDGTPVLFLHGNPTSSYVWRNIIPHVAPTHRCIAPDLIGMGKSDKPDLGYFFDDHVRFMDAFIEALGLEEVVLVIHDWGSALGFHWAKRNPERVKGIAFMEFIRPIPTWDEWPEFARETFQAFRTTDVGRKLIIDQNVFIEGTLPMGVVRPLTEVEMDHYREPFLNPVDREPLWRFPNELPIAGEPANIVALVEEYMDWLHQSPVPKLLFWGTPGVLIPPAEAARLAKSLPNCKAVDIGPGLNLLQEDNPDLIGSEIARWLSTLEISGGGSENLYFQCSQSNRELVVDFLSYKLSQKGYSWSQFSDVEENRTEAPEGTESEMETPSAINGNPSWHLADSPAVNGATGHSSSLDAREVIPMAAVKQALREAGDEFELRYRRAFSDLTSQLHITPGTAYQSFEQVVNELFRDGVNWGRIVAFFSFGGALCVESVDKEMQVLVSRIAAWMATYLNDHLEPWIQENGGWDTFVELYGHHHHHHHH

Consider `Cc1c(N(C(=O)c2cc(-c3cc4c(cc3C(=O)N3Cc5ccccc5C[C@H]3CN3CCCCC3)CN(C(=O)Cc3ccc(OCCN(C)CC5COC5)cc3)CC4)n(C)c2C)c2ccc(O)cc2)cc(C#N)n1C` [Example 104, N-(5-cyano-1,2-dimethyl-1H-pyrrol-3-yl)-N-(4-hydroxyphenyl)-1,2-dimethyl-5-(2-{2-[4-(2-{methyl[(oxetan-3-yl)methyl]amino}ethoxy)phenyl]acetyl}-7-[(3S)-3-[(piperidin-1-yl)methyl]-1,2,3,4-tetrahydroisoquinoline-2-carbonyl]-1,2,3,4-tetrahydroisoquinolin-6-yl)-1H-pyrrole-3-carboxamide], for which the Ki in experiment [1] worked out at 0.07 nM; in experiment [2], 0.17 nM; in experiment [3], 0.4 nM; in experiment [5], 2.6 nM. Besides, in experiment [4], the “TR_FRET EKI G101V/WT selectivty ratio” value worked out at 5.8. The “TR_FRET EKI BCLxL/WT selectivty ratio” value in experiment [5] came out at 40.0. The IC50 in experiment [6] is 0.0166 µM; in experiment [7], 0.0893 µM. For the same compound, in experiment [7], the “Ratio (G101V/WT)” value is 5.38.
On to `Cc1c(N(C(=O)c2cc(-c3cc4c(cc3C(=O)N3Cc5ccccc5C[C@H]3CN3CCCCC3)CN(C(=O)Cc3ccc(OCCN(C)C5COC5)cc3)CC4)n(C)c2C)c2ccc(O)cc2)cc(C#N)n1C` [Example 106, N-(5-cyano-1,2-dimethyl-1H-pyrrol-3-yl)-N-(4-hydroxyphenyl)-1,2-dimethyl-5-{2-[2-(4-{2-[methyl(oxetan-3-yl)amino]ethoxy}phenyl)acetyl]-7-[(3S)-3-[(piperidin-1-yl)methyl]-1,2,3,4-tetrahydroisoquinoline-2-carbonyl]-1,2,3,4-tetrahydroisoquinolin-6-yl}-1H-pyrrole-3-carboxamide], for which the Ki in experiment [1] came out at 0.05 nM; in experiment [2] it was 0.19 nM; in experiment [3], 0.3 nM; in experiment [5], 1.8 nM. In addition, the “TR_FRET EKI G101V/WT selectivty ratio” value in experiment [4] came out at 6.2. Moreover, the “TR_FRET EKI BCLxL/WT selectivty ratio” value in experiment [5] amounted to 36.0. Besides, the half-inhibitory concentration (IC50) in experiment [6] was determined as 0.0107 µM; in experiment [7], 0.0485 µM. The “Ratio (G101V/WT)” value in experiment [7] is 4.53.
Turning to `Cc1c(N(C(=O)c2cc(-c3cc4c(cc3C(=O)N3Cc5ccccc5C[C@H]3CN3CCCCC3)CN(C(=O)Cc3ccc(OCCN5CCN(CC(F)F)CC5)cc3)CC4)n(C)c2C)c2ccc(O)cc2)cc(C#N)n1C` [Example 112, N-(5-cyano-1,2-dimethylpyrrol-3-yl)-5-{2-[2-(4-{2-[4-(2,2-difluoroethyl)piperazin-1-yl]ethoxy}phenyl)acetyl]-7-{[(3S)-3-(piperidin-1-ylmethyl)-3,4-dihydro-1H-isoquinolin-2-yl]carbonyl}-3,4-dihydro-1H-isoquinolin-6-yl}-N-(4-hydroxyphenyl)-1,2-dimethylpyrrole-3-carboxamide], the Ki in experiment [1] is 0.05 nM; in experiment [2], 0.1 nM; in experiment [3], 0.3 nM; in experiment [5], 7.1 nM. Besides, in experiment [4], the “TR_FRET EKI G101V/WT selectivty ratio” value worked out at 5.6. In experiment [5], the “TR_FRET EKI BCLxL/WT selectivty ratio” value was found to be 134.0. Besides, the results for the concentration for half-maximal inhibition (IC50) in experiment [6] and in experiment [7] were 0.0124 µM and 0.0707 µM, respectively. Also, in experiment [7], the “Ratio (G101V/WT)” value came to 5.7.
Take `COc1cc(OCCN2CCOCC2)ccc1CC(=O)N1CCc2cc(-c3cc(C(=O)N(c4ccc(O)cc4)c4cc(C#N)n(C)c4C)c(C)n3C)c(C(=O)N3Cc4ccccc4C[C@H]3CN3CCCCC3)cc2C1` [Example 114, N-(5-cyano-1,2-dimethyl-1H-pyrrol-3-yl)-N-(4-hydroxyphenyl)-5-[2-(2-{2-methoxy-4-[2-(morpholin-4-yl)ethoxy]phenyl}acetyl)-7-[(3S)-3-[(piperidin-1-yl)methyl]-1,2,3,4-tetrahydroisoquinoline-2-carbonyl]-1,2,3,4-tetrahydroisoquinolin-6-yl]-1,2-dimethyl-1H-pyrrole-3-carboxamide]: the Ki in experiment [1] was determined as 0.05 nM; in experiment [2], 0.1 nM; in experiment [3], 0.2 nM; in experiment [5] it was 4.3 nM. Further, the “TR_FRET EKI G101V/WT selectivty ratio” value in experiment [4] stood at 3.9. Also, the “TR_FRET EKI BCLxL/WT selectivty ratio” value in experiment [5] was 84.3. The IC50 in experiment [6] was 0.0099 µM; in experiment [7] it was 0.0602 µM. The “Ratio (G101V/WT)” value in experiment [7] amounted to 6.09.
Consider `Cc1c(N(C(=O)c2cc(-c3cc4c(cc3C(=O)N3Cc5ccccc5C[C@H]3CN3CCCCC3)CN(C(=O)Cc3ccc(OCCN(C)CCF)cc3)CC4)n(C)c2C)c2ccc(O)cc2)cc(C#N)n1C` [Example 116, N-(5-cyano-1,2-dimethyl-1H-pyrrol-3-yl)-5-{2-[2-(4-{2-[(2-fluoroethyl)(methyl)amino]ethoxy}phenyl)acetyl]-7-[(3S)-3-[(piperidin-1-yl)methyl]-1,2,3,4-tetrahydroisoquinoline-2-carbonyl]-1,2,3,4-tetrahydroisoquinolin-6-yl}-N-(4-hydroxyphenyl)-1,2-dimethyl-1H-pyrrole-3-carboxamide], for which the Ki in experiment [1] is 0.05 nM; in experiment [2], 0.19 nM; in experiment [3], 0.4 nM; in experiment [5], 3.3 nM. In addition, in experiment [4], the “TR_FRET EKI G101V/WT selectivty ratio” value was determined as 7.0. Besides, the “TR_FRET EKI BCLxL/WT selectivty ratio” value in experiment [5] is recorded as 61.1. The IC50 in experiment [6] was 0.0111 µM; in experiment [7], 0.0583 µM. The “Ratio (G101V/WT)” value in experiment [7] was found to be 5.25.
As to `Cc1c(N(C(=O)c2cc(-c3cc4c(cc3C(=O)N3Cc5ccccc5C[C@H]3CN3CCCCC3)CN(C(=O)Cc3ccc(OCCC5CCOCC5)nc3)CC4)n(C)c2C)c2ccc(O)cc2)cc(C#N)n1C` [Example 118, N-(5-cyano-1,2-dimethyl-1H-pyrrol-3-yl)-N-(4-hydroxyphenyl)-1,2-dimethyl-5-[2-(2-{6-[2-(oxan-4-yl)ethoxy]pyridin-3-yl}acetyl)-7-[(3S)-3-[(piperidin-1-yl)methyl]-1,2,3,4-tetrahydroisoquinoline-2-carbonyl]-1,2,3,4-tetrahydroisoquinolin-6-yl]-1H-pyrrole-3-carboxamide], the Ki in experiment [1] turned out to be 0.1 nM; in experiment [2] it was 0.14 nM; in experiment [3], 0.5 nM; in experiment [5], 5.2 nM. The “TR_FRET EKI G101V/WT selectivty ratio” value in experiment [4] was determined as 5.1. Also, the “TR_FRET EKI BCLxL/WT selectivty ratio” value in experiment [5] worked out at 52.5. Also, the concentration for half-maximal inhibition (IC50) in experiment [6] amounted to 0.0107 µM; in experiment [7], 0.0814 µM. Moreover, the “Ratio (G101V/WT)” value in experiment [7] was determined as 7.61.
As for `Cc1c(N(C(=O)c2cc(-c3cc4c(cc3C(=O)N3Cc5ccccc5C[C@H]3CN3CCCCC3)CN(C(=O)Cc3ccc(OCCN5CCN(C)CC5)cc3)CC4)n(C)c2C)c2ccc(O)cc2)cc(C#N)n1C` [Example 119, N-(5-cyano-1,2-dimethyl-1H-pyrrol-3-yl)-N-(4-hydroxyphenyl)-1,2-dimethyl-5-[2-(2-{4-[2-(4-methylpiperazin-1-yl)ethoxy]phenyl}acetyl)-7-[(3S)-3-[(piperidin-1-yl)methyl]-1,2,3,4-tetrahydroisoquinoline-2-carbonyl]-1,2,3,4-tetrahydroisoquinolin-6-yl]-1H-pyrrole-3-carboxamide], the Ki in experiment [1] turned out to be 0.04 nM; in experiment [2], 0.14 nM; in experiment [3], 0.2 nM; in experiment [5], 2.2 nM. Further, the “TR_FRET EKI G101V/WT selectivty ratio” value in experiment [4] was 5.6. The “TR_FRET EKI BCLxL/WT selectivty ratio” value in experiment [5] is given as 56.4. Further, the figures for the IC50 in experiment [6] and in experiment [7] were 0.0284 µM and 0.073 µM, respectively. The “Ratio (G101V/WT)” value in experiment [7] is on record as 2.57.

These data come from patent publication US20250179047A1, “5-[7-(3,4-DIHYDRO-1H-ISOQUINOLINE-2-CARBONYL)-1,2,3,4 TETRAHYDROISOQUINOLIN-6-YL]-1H-PYRROLE-3-CARBOXAMIDE DERIVATIVES, PHARMACEUTICAL COMPOSITIONS CONTAINING THEM AND THEIR USES AS PRO-APOPTOTIC AGENTS” (LES LABORATOIRES SERVIER, priority 2022, published 2025).
